Source: PubChem BioAssay AID463178 (University of Pittsburgh Molecular Library Screening Center, 2010)
Activity calls are given as the source filed them.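 Rule for the calls: active = IC50 below a set limit in both duplicate runs and mean IC50 below a set limit; inconclusive = IC50 above a set limit in only one run; inactive = IC50 above a set limit in both runs and mean.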

What follows are molecules tested on Jurkat FADD-/- TNF-alpha necroptosis, CellTiter-Glo ATP, 24 h (assay: inhibitors of TNF-alpha triggered necroptosis, potency, dose response, cell-based, Jurkat FADD-/-, duplicate IC50 (AID 463178)).

Row | SMILES | IC50
1 | Clc1ccc(COn2ccnc2)cc1Cl | 1.97 µM
2 | O=C(Nc1cccc(Cl)c1)N1N=CCC1c1ccccc1 (stereo unspecified) | 1.28 µM
3 | COc1ccc(/C=N/Nc2ccccn2)cc1O | 14.8 µM
4 | O=C(Nc1ccccc1)N1N=CCC1c1ccccc1 (stereo unspecified) | 1.48 µM
5 | COC(C(=O)Nc1ccc(F)cc1F)c1ccccc1 (stereo unspecified) | 0.969 µM
6 | CC(C)c1ccc(O)c(NC(=O)c2cncc(Br)c2)c1 | > 20 µM (inactive)
7 | Cc1ccc(Oc2ccccc2/C=C2\SC(=O)N(C)C2=O)cc1 | > 20 µM (inactive)
8 | Clc1ccc(C2=NNC(=NCc3ccccc3)SC2)cc1 | > 20 µM (inactive)
9 | COc1ccc(/C=C2\N=C(SC)NC2=O)cc1 | > 20 µM (inactive)
10 | Cc1cc([N+](=O)[O-])nn1Cc1ccc(F)cc1 | 7.15 µM
11 | Cc1ccc(C(=O)NC(C#N)=C(Cl)Cl)cc1 | > 20 µM (inactive)
12 | Cc1ccc(C)c(C2=NNC(=NCc3ccccc3)SC2)c1 | 15.2 µM
13 | C/C(Cl)=C/CN1C(=O)C2C3C=CC(C3)C2C1=O (stereo unspecified) | 6.41 µM
14 | O=C(O)c1ccc(/C=N/Nc2ccc(C(F)(F)F)cn2)cc1 | 6.32 µM
15 | O=C1CC(c2ccccc2)C(=O)N1c1cccc(O)c1 (stereo unspecified) | 12.9 µM
16 | COC(=O)c1ccn(Cc2ccccc2Cl)n1 | 0.881 µM
17 | CC(=O)N(c1ccccc1)c1nnc(-c2cnc(C)cn2)s1 | 10.6 µM
18 | O=C(Nc1ccc(Cl)cn1)C1COc2ccccc2O1 (stereo unspecified) | > 20 µM (inactive)
19 | C=C(C)CSc1nnc2n(Cc3ccccc3)c(=O)c3c4c(sc3n12)CCC4 | > 20 µM (inactive)
20 | COc1ccc(/C=N/Nc2ccccn2)cc1OC | > 20 µM (inactive)
21 | Cc1csc(SCC(=O)NC(=O)NC2CCCC2)n1 | 12.2 µM
22 | OC(c1ccccc1)c1nc2ccccc2s1 (stereo unspecified) | 14.6 µM
23 | COc1ccc(-n2cnc3cc(NS(=O)(=O)c4ccccc4)ccc32)cc1 | > 20 µM (inactive)
24 | CC(NC(=O)c1cc(Br)ccc1Cl)c1ccccc1 (stereo unspecified) | > 20 µM (inactive)

Row | SMILES | IC50
25 | O=C1NC(=Nc2ccccc2)SC1Cc1cccc(Cl)c1Cl (stereo unspecified) | > 20 µM (inactive)
26 | CN=C(Cc1ccccc1)C1=C(O)CC(C)(C)CC1=O | 4.76 µM
27 | O=S(=O)(Nc1ccccc1)c1ccc2c(c1)CCO2 | 9.75 µM
28 | O=[N+]([O-])c1ccc(Nc2ccccc2F)nc1 | 15.5 µM
29 | O=C(CSc1ccc(Cl)cc1)N1N=CCC1c1ccccc1 (stereo unspecified) | 16.4 µM
30 | O=C(CSc1nnc2n1CCCN2C(=S)Nc1ccc(Cl)cc1)c1ccccc1 | > 20 µM (inactive)
31 | O=C(CSCc1ccc([N+](=O)[O-])cc1)NC1CC2CCC1C2 (stereo unspecified) | 13.6 µM
32 | Cc1ccc(CN2CCSc3sccc3C2=O)cc1 | 9.28 µM
33 | Cc1nnsc1C(=O)NCc1c(F)cccc1Cl | 7.64 µM
34 | N#CCSc1nc2sc3c(c2c(=O)n1C1CCCCC1)CCCC3 | > 20 µM (inactive)
35 | Cc1cnc(NC(=O)C2(c3ccccc3)CC2)s1 | > 20 µM (inactive)
36 | CC(=O)Nc1ccn(Cc2c(F)cccc2Cl)n1 | 3.52 µM
37 | Cc1nc2oc3ccccc3c(=O)c2c(=O)n1Cc1ccccc1 | 14.4 µM
38 | Cc1ccc2[nH]c3c(c2c1)CCc1cn[nH]c1-3 | 1.14 µM
39 | O=C(NCc1c(Cl)cccc1Cl)c1ccc2nnsc2c1 | > 20 µM (inactive)
40 | COc1ccc(NC(=O)C(OC)c2ccccc2)cc1Cl (stereo unspecified) | 12 µM
41 | Cc1ccc(SCC(=O)N2N=CCC2c2ccccc2)cc1 (stereo unspecified) | 11.8 µM
42 | O=S(=O)(c1cccc2cccnc12)N1CCN(c2ccc(F)cc2)CC1 | > 20 µM (inactive)
43 | Cc1ccc(NC(=O)C2COc3ccccc3O2)nc1 (stereo unspecified) | 10 µM
44 | O=C(OC(C(=O)Nc1ccc([N+](=O)[O-])cc1Br)c1ccccc1)c1ccccc1 (stereo unspecified) | > 20 µM (inactive)
45 | Cc1ccc(NC(=O)CSCc2ccc(F)cc2)cc1 | > 20 µM (inactive)
46 | O=C(CSCc1ccc([N+](=O)[O-])cc1)NC1CCCCCC1 | 10 µM
47 | Cc1cnc(NC(=O)C2COc3ccccc3O2)s1 (stereo unspecified) | > 20 µM (inactive)
48 | O=C(Cn1cnc2ccc(Cl)cc2c1=O)c1cccs1 | > 20 µM (inactive)

Row | SMILES | IC50
49 | O=[N+]([O-])c1ncn(Cc2ccccc2Cl)n1 | 2.51 µM
50 | O=C(CN1CCN(C(c2ccccc2)c2ccccc2)CC1)N1N=CCC1c1ccccc1 (stereo unspecified) | > 20 µM (inactive)
51 | O=[N+]([O-])c1ccc(Nc2cccc(F)c2)nc1 | 19.6 µM
52 | CC(=O)N(CC1CCCO1)c1nnc(-c2ccccn2)s1 (stereo unspecified) | 9.72 µM
53 | CC(=O)OC(C(=O)NC1CCCCC1)c1ccc(Cl)c(Cl)c1 (stereo unspecified) | > 20 µM (inactive)
54 | Cc1csc(Nc2ccc(Cl)cc2)[n+]1-c1ccc(Cl)cc1 | > 20 µM (inactive)
55 | COc1cc(/C=N/Nc2nc3ccccc3[nH]2)cc(Br)c1OCC(=O)N(C)C | > 20 µM (inactive)
56 | COC(C(=O)Nc1cccc(F)c1)c1ccccc1 (stereo unspecified) | 6.43 µM
57 | CC(=O)Nc1ccc(/C=N/Nc2nc3ccccc3s2)cc1 | > 20 µM (inactive)
58 | CC(=O)N(CC1CCCO1)c1nnc(-c2cnccn2)s1 (stereo unspecified) | 5.94 µM
59 | COc1ccc(/C=N/Nc2nc3ccccc3s2)cc1O | > 20 µM (inactive)
60 | Cc1csc(Nc2ccccc2)[n+]1-c1ccccc1 | > 20 µM (inactive)
61 | O=C(Cn1cnc2ccc(Br)cc2c1=O)c1cccs1 | > 20 µM (inactive)
62 | O=C1c2ccsc2SCCN1Cc1ccccc1 | 6.07 µM
63 | CCn1c([N+](=O)[O-])nc2c1c(=O)[nH]c(=O)n2C | > 20 µM (inactive)
64 | Cc1cc(N/N=C/c2ccncc2)nc2ccccc12 | > 20 µM (inactive)
65 | Clc1ccc2[nH]c3c(c2c1)CCc1cn[nH]c1-3 | 5.28 µM
66 | O=C(Nc1ncc(Cc2ccccc2)s1)C1COc2ccccc2O1 (stereo unspecified) | > 20 µM (inactive)
67 | O=C(COc1ccccc1Cl)NC(=O)NC1CCCC1 | 12.6 µM
68 | CN(CC1CCCO1)S(=O)(=O)c1ccc(C(=O)Nc2nccs2)cc1 (stereo unspecified) | 12.9 µM
69 | O=[N+]([O-])c1ccc(Nc2ccc(F)cc2)nc1 | 14.6 µM
70 | Fc1ccc(NC(=S)N2N=CCC2c2ccccc2)cc1 (stereo unspecified) | 3.38 µM
71 | CCn1c(O)c(C=NCc2ccccc2)sc1=S | > 20 µM (inactive)
72 | O=C(C1COc2ccccc2O1)N1CCc2ccccc21 (stereo unspecified) | 5.82 µM

Row | SMILES | IC50
73 | Fc1ccc(C2=NNC(=NCc3ccccc3)SC2)cc1F | > 20 µM (inactive)
74 | COc1ccc(-n2c(C)nc3sc4c(c3c2=O)CCCC4)cc1 | 13.9 µM
75 | O=C(Nc1nccs1)c1cc2c(s1)CCCCC2 | > 20 µM (inactive)
76 | Cc1nn(Cc2ccccc2)c(N)c1C#N | 9.44 µM
77 | O=C(CSC(=S)N1CCOCC1)N1N=CCC1c1ccccc1 (stereo unspecified) | 9.41 µM
78 | COC(C(=O)Nc1ccc(S(=O)(=O)N2CCCCC2)cc1)c1ccccc1 (stereo unspecified) | > 20 µM (inactive)
79 | O=C(C1=NNCC1c1ccccc1)C1CO1 (stereo unspecified) | 4.94 µM
80 | COC(C(=O)Nc1ccc(F)cc1)c1ccccc1 (stereo unspecified) | 2.15 µM
81 | COc1ccc(C2CN=NC2C(=O)c2ccccc2)cc1 (stereo unspecified) | 16.4 µM
82 | CC(Nc1nc(-c2ccc3c(c2)NC(=O)CO3)cs1)c1ccccc1 (stereo unspecified) | > 20 µM (inactive)
83 | c1ccc(CSc2nnc(-c3ccco3)o2)cc1 | 17.3 µM
84 | O=C(Cc1c(F)cccc1Cl)Nc1ncc([N+](=O)[O-])s1 | > 20 µM (inactive)
85 | Cc1ccc(CC(=O)Nc2ncc([N+](=O)[O-])s2)cc1 | > 20 µM (inactive)
86 | CCC(C)c1ccc(O)c(NC(=O)c2cncc(Br)c2)c1 (stereo unspecified) | > 20 µM (inactive)
87 | c1csc(Cc2nc3ccccc3[nH]2)c1 | 8.85 µM
88 | O=C(CSc1nnnn1-c1ccccc1)N1N=CCC1c1ccccc1 (stereo unspecified) | 6.27 µM
89 | Cc1nn(Cc2c(F)cccc2Cl)c(C)c1[N+](=O)[O-] | > 20 µM (inactive)
90 | c1ccc(C2CC3CC4(CCCC4)N2O3)cc1 (stereo unspecified) | 3.81 µM
91 | O=C(Nc1ccc(Cl)cc1)N1N=CCC1c1ccccc1 (stereo unspecified) | 11.6 µM
92 | COc1ccc(NC(=S)N2N=CCC2c2ccccc2)cc1 (stereo unspecified) | 12.9 µM
93 | O=[N+]([O-])c1ncn(Cc2c(Cl)cccc2Cl)n1 | 13.1 µM
94 | O=C(Nc1cccc2ccccc12)N1N=CCC1c1ccccc1 (stereo unspecified) | > 20 µM (inactive)
95 | Clc1cccc(Cl)c1Cn1ccc(C2CC2)n1 | 4.75 µM
96 | O=C(C1=NNCC1c1ccc(Cl)cc1)C1CO1 (stereo unspecified) | 7.86 µM

Row | SMILES | IC50
97 | Cc1ccc(Cn2cnc3sc4c(c3c2=O)CCC4)c(C)c1 | > 20 µM (inactive)
98 | O=[N+]([O-])c1ccc(Nc2ccc(Cl)cc2)nc1 | > 20 µM (inactive)
99 | COCCNS(=O)(=O)c1ccc(SC)cc1 | 9.06 µM
100 | O=C(c1ccc([N+](=O)[O-])cc1)N1CCSC1c1ccccc1Cl (stereo unspecified) | > 20 µM (inactive)
101 | COC(C(=O)Nc1ccc(F)c(F)c1)c1ccccc1 (stereo unspecified) | 1.52 µM
102 | COc1ccc(NC(C)c2ccccc2)cc1 (stereo unspecified) | 14.1 µM
103 | O=C(Nc1nccs1)c1ccc(S(=O)(=O)N2CCCCC2)cc1 | > 20 µM (inactive)
104 | COc1ccc(-n2c(C)nn(CC3CC3)c2=O)cc1 | 5.12 µM
105 | O=C1NC(Cc2c[nH]c3ccccc23)C(=O)N1CCOc1ccc(F)cc1 (stereo unspecified) | 10 µM
106 | O=C(NNc1c(Cl)cccc1Cl)C1CCC1 | 9.85 µM
107 | Cc1ccc(C2CC(=O)NC(SCC(=O)Nc3nccs3)=C2C#N)cc1 (stereo unspecified) | > 20 µM (inactive)
108 | COc1ccc(-c2nc3c(-c4ccccc4)cnn3cc2C)cc1F | > 20 µM (inactive)
109 | O=C(Nc1ccc(Cl)c(Cl)c1)N1N=CCC1c1ccccc1 (stereo unspecified) | 11.8 µM
110 | COC(C(=O)Nc1ccc(Br)cc1F)c1ccccc1 (stereo unspecified) | 10.7 µM
111 | COC(C(=O)Nc1ccccc1F)c1ccccc1 (stereo unspecified) | 4.25 µM
112 | Cc1nnsc1C(=O)NNc1c(Cl)cccc1Cl | 5.04 µM
113 | O=[N+]([O-])c1ccc(Nc2ccccc2)nc1 | 15.3 µM
114 | Brc1ccc(COn2ccnc2)cc1 | 6.31 µM
115 | COc1ccc(-n2c(C)nc3sc4c(c3c2=O)CCC4)cc1 | 4.17 µM
116 | S=C(Nc1ccccc1)N1N=CCC1c1ccccc1 (stereo unspecified) | 7.65 µM
